Experimental data reported in patent US6348309B1, “Process for inactivating viruses in blood and blood products” (priority 1989, dated 2002).
Marks after values point to notes of the source that are not given here.

What was measured:
HIV-1 = assay: MB/light treatment of HIV-1 in plasma, infectivity on MT-4 cells (Example 5); assay type: cell-based
Hog Cholera = assay type: cell-based
Vesicular Stomatitis = assay type: cell-based
coagulation factor IX = molecular target: T1, coagulation factor IX (Homo sapiens, UniProt P00740); assay: Coagulation factor activity in human plasma right after MB addition (Example 9); assay type: biochemical; conditions: no light
T1 construct: Varying amounts of MB were added to human plasma (2 ml aliquots); from tissue; host or cells: human plasma

coagulation factor VIII = molecular target: T2, coagulation factor VIII (Homo sapiens, UniProt P00451); assay: Coagulation factor activity in human plasma with MB and light exposure (Example 10); assay type: biochemical
T2 construct: Varying amounts of MB were added to human plasma (2 ml aliquots); from tissue; host or cells: human plasma
T2 sequence (P00451 20-1332 limits assumed): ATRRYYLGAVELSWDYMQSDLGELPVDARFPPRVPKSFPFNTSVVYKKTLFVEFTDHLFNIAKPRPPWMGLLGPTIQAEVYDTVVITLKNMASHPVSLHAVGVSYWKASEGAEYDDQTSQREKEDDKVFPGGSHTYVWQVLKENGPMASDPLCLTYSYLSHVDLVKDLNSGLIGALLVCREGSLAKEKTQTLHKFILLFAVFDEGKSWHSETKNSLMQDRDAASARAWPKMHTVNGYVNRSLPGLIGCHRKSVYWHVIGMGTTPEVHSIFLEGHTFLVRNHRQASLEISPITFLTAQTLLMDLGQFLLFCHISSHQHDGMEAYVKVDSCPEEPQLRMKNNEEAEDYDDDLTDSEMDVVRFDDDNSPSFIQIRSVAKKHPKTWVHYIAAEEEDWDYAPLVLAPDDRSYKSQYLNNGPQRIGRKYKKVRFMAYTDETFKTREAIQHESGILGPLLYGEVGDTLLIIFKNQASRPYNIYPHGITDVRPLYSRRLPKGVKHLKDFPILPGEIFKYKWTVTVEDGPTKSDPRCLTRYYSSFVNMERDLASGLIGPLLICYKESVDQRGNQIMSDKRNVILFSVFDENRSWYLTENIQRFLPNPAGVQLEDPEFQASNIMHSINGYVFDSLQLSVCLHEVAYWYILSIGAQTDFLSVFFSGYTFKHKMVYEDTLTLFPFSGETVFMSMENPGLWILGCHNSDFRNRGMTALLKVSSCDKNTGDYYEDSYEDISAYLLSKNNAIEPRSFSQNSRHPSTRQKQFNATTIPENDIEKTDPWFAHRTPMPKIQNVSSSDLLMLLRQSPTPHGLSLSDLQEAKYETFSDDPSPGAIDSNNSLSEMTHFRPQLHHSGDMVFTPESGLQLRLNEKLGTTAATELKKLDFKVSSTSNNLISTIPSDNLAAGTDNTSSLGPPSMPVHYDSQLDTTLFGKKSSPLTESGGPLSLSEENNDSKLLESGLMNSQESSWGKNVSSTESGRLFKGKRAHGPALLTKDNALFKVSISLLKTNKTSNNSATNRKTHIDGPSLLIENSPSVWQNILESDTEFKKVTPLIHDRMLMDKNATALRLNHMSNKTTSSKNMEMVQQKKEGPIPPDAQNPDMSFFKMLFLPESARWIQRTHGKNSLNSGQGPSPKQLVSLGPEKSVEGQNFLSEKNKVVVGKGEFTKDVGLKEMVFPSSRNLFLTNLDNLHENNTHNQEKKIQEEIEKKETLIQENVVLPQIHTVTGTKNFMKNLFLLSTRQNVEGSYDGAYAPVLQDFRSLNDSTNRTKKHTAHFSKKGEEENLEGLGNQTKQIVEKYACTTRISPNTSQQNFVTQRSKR
T2 sequence (P00451 1668-2351 limits assumed): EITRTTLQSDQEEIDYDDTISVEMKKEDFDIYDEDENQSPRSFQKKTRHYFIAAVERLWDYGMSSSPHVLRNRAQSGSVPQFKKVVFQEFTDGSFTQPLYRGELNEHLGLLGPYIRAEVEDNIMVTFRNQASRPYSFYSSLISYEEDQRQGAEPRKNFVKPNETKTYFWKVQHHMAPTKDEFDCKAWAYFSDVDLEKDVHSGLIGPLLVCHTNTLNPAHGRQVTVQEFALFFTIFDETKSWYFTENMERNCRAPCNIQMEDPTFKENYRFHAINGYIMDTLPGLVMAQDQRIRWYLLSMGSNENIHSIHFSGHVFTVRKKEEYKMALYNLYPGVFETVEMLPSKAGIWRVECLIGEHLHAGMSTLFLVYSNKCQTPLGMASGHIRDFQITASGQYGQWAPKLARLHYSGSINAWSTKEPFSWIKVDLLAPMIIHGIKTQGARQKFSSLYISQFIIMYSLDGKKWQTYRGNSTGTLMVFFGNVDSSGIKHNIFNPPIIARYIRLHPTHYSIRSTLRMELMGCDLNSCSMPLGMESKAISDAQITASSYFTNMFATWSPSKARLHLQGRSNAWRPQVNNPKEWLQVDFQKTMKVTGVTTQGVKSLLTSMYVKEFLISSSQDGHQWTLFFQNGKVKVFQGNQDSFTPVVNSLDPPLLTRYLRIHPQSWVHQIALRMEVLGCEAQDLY

coagulation factor V = molecular target: T3, coagulation factor V (Homo sapiens, UniProt P12259); assay: Coagulation factor activity in human plasma right after MB addition (Example 9); assay type: biochemical; conditions: no light
T3 construct: Varying amounts of MB were added to human plasma (2 ml aliquots); from tissue; host or cells: human plasma

VSV = assay type: cell-based, vesicular stomatitis virus
Suid Herpes Type 1 = assay type: cell-based

T3 sequence (P12259 29-2224): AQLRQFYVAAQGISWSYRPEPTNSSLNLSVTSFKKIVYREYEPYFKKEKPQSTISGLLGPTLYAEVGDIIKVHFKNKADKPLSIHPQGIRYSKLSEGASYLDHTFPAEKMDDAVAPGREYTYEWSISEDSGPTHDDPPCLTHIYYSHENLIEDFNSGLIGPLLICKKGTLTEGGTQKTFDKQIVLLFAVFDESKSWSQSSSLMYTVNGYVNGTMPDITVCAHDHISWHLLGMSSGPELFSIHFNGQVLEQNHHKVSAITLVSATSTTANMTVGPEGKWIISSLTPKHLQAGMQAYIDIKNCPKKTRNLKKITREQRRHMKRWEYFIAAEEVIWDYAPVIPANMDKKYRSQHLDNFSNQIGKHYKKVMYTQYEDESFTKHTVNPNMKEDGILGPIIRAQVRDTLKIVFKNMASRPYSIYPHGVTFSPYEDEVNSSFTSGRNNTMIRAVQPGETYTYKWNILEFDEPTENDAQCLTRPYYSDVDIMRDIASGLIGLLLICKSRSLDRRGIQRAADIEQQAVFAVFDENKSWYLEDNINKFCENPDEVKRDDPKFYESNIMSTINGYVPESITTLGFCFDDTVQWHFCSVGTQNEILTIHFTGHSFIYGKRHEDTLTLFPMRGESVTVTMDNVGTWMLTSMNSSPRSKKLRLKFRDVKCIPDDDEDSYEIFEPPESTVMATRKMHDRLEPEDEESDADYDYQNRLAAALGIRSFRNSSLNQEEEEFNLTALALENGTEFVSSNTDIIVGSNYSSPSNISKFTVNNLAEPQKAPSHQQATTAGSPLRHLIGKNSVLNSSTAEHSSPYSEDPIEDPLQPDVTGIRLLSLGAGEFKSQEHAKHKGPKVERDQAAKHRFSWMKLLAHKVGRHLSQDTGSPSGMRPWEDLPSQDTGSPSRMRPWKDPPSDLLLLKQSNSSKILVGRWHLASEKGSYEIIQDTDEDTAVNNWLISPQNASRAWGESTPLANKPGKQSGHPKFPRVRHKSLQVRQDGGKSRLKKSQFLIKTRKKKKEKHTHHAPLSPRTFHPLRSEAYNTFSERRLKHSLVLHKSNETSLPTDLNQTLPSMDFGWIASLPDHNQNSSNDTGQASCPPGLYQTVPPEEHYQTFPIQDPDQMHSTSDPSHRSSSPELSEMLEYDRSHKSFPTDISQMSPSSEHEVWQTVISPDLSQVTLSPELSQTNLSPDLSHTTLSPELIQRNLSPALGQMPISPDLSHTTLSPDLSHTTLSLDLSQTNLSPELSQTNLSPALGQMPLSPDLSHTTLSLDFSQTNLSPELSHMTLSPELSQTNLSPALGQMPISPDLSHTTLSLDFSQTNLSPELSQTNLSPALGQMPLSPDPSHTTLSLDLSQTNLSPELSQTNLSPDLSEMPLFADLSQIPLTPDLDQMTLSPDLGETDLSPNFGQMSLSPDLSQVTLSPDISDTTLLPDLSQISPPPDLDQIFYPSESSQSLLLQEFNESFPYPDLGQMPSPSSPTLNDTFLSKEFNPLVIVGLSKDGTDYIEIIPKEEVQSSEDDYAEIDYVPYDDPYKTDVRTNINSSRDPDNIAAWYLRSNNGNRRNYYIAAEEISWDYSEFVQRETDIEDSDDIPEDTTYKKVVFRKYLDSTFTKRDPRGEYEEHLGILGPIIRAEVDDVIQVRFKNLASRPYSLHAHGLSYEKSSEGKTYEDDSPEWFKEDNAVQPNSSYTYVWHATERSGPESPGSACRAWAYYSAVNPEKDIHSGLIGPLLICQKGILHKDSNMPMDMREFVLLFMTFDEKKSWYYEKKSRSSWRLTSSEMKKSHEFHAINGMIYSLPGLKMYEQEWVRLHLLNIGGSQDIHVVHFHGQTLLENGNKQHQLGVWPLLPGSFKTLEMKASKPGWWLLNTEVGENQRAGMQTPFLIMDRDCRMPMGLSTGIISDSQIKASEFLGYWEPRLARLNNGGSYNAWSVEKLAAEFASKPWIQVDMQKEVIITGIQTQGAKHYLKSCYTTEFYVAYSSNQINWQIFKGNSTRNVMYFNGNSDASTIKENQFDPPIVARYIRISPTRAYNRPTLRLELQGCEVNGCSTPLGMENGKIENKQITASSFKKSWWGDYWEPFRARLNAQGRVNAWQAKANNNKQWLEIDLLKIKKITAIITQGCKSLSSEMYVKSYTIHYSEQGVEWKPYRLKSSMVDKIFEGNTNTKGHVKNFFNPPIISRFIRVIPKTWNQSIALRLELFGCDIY
T1 sequence (P00740 47-461): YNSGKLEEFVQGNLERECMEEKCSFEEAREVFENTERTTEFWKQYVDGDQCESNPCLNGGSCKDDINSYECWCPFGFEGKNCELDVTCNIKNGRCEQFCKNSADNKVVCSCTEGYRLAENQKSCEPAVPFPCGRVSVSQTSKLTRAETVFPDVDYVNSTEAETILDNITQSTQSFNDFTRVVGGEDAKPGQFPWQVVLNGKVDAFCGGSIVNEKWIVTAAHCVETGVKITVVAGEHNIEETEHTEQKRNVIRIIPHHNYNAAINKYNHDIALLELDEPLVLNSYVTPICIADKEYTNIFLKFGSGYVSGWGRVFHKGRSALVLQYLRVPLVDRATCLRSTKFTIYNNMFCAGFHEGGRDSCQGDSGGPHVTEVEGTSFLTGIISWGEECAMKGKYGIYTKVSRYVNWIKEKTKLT

Question: Which “effect of the dye alone on the virus” value (HIV-1; MB 1 μM, no illumination) does the source give for `CN(C)c1ccc2nc3ccc(=[N+](C)C)cc-3sc2c1` [MB, methylene blue] here?
Answer: The value was “not detrimental to the virus”.

Question: What about the “reduction of viral infectivity” value (HIV-1; MB 1 μM, within the first 10 minutes of light exposure) of the same compound?
Answer: Its value is “approx. 6 log10 steps”.

Question: What about the “Log10 TCID50/ml HIV-1” value (HIV-1; Sample A, MB 1 μM without light, 0 min) of the same compound?
Answer: The value was 6.00 Log10 TCID50/ml.

Question: And the “Log10 TCID50/ml HIV-1” value (HIV-1; Sample A, MB 1 μM without light, 2 min)?
Answer: The value was 5.94 Log10 TCID50/ml.

Question: What about the “Log10 TCID50/ml HIV-1” value (HIV-1; Sample A, MB 1 μM without light, 5 min) of the same compound?
Answer: The value was 5.94 Log10 TCID50/ml.

Question: What about the “Log10 TCID50/ml HIV-1” value (HIV-1; Sample A, MB 1 μM without light, 10 min) of the same compound?
Answer: Its value is 5.94 Log10 TCID50/ml.

Question: What about the “Log10 TCID50/ml HIV-1” value (HIV-1; Sample A, MB 1 μM without light, 15 min) of the same compound?
Answer: The value was 6.06 Log10 TCID50/ml.

Question: And the “Log10 TCID50/ml HIV-1” value (HIV-1; Sample A, MB 1 μM without light, 30 min)?
Answer: Its value is 5.76 Log10 TCID50/ml.

Question: And the “Log10 TCID50/ml HIV-1” value (HIV-1; Sample A, MB 1 μM without light, 60 min)?
Answer: The value was 5.70 Log10 TCID50/ml.

Question: And the “Log10 TCID50/ml HIV-1” value (HIV-1; Sample C, MB 1 μM + light 45,000 Lux, exposure 0 min)?
Answer: The value was 5.82 Log10 TCID50/ml.

Question: And the “Log10 TCID50/ml HIV-1” value (HIV-1; Sample C, MB 1 μM + light 45,000 Lux, exposure 2 min)?
Answer: Its value is 3.37 Log10 TCID50/ml.

Question: And the “Log10 TCID50/ml HIV-1” value (HIV-1; Sample C, MB 1 μM + light 45,000 Lux, exposure 5 min)?
Answer: The value was 1.5 Log10 TCID50/ml.

Question: What about the “Log10 TCID50/ml HIV-1” value (HIV-1; Sample C, MB 1 μM + light 45,000 Lux, exposure 10 min) of the same compound?
Answer: The value was “≦0.5 Log10 TCID50/ml”.

Question: What about the “Log10 TCID50/ml HIV-1” value (HIV-1; Sample C, MB 1 μM + light 45,000 Lux, exposure 15 min) of the same compound?
Answer: The value was “≦0.5 Log10 TCID50/ml”.

Question: What about the “Log10 TCID50/ml HIV-1” value (HIV-1; Sample C, MB 1 μM + light 45,000 Lux, exposure 30 min) of the same compound?
Answer: Its value is “≦0.5 Log10 TCID50/ml”.

Question: What about the “Log10 TCID50/ml HIV-1” value (HIV-1; Sample C, MB 1 μM + light 45,000 Lux, exposure 60 min) of the same compound?
Answer: The value was “≦0.5 Log10 TCID50/ml”.

Question: And the “Inactivation Rate” value (Hog Cholera)?
Answer: The value was >5.92 * log10 TCID50.

Question: What about the “Inactivation Rate” value (Vesicular Stomatitis) of the same compound?
Answer: The value was >4.89 * log10 TCID50.

Question: What about the “Factor IX” value (coagulation factor IX; Methylene Blue 1 μM) of the same compound?
Answer: Its value is 1.9 E/ml.

Question: What about the “Factor IX” value (coagulation factor IX; Methylene Blue 2.5 μM) of the same compound?
Answer: Its value is 1.6 E/ml.

Question: And the “Factor IX” value (coagulation factor IX; Methylene Blue 5 μM)?
Answer: Its value is 1.45 E/ml.

Question: What about the “Factor IX” value (coagulation factor IX; Methylene Blue 10 μM) of the same compound?
Answer: The value was 1.20 E/ml.

Question: And the “Factor IX” value (coagulation factor IX; Methylene Blue 20 μM)?
Answer: Its value is 1.10 E/ml.

Question: And the “MB concentration from which factor IX activity is inhibited” value (coagulation factor IX)?
Answer: Its value is 2.5 µM.

Question: What about the “Factor VIII” value (coagulation factor VIII; light exposure 0 h, MB 1 μM) of the same compound?
Answer: Its value is 0.45 E/ml.

Question: And the “Factor VIII” value (coagulation factor VIII; light exposure 0 h, MB 2.5 μM)?
Answer: Its value is 0.33 E/ml.

Question: And the “Factor VIII” value (coagulation factor VIII; light exposure 0 h, MB 10 μM)?
Answer: Its value is 0.30 E/ml.

Question: What about the “Factor VIII” value (coagulation factor VIII; light exposure 1 h, MB 1 μM) of the same compound?
Answer: Its value is 0.24 E/ml.

Question: What about the “Factor VIII” value (coagulation factor VIII; light exposure 1 h, MB 2.5 μM) of the same compound?
Answer: The value was 0.24 E/ml.

Question: And the “Factor VIII” value (coagulation factor VIII; light exposure 1 h, MB 10 μM)?
Answer: The value was 0.16 E/ml.

Question: And the “Factor VIII” value (coagulation factor VIII; light exposure 2 h, MB 1 μM)?
Answer: Its value is 0.23 E/ml.

Question: And the “Factor VIII” value (coagulation factor VIII; light exposure 2 h, MB 2.5 μM)?
Answer: The value was 0.22 E/ml.

Question: What about the “Factor VIII” value (coagulation factor VIII; light exposure 2 h, MB 10 μM) of the same compound?
Answer: The value was 0.15 E/ml.

Question: What about the “Factor VIII” value (coagulation factor VIII; light exposure 4 h, MB 1 μM) of the same compound?
Answer: The value was 0.16 E/ml.

Question: What about the “Factor VIII” value (coagulation factor VIII; light exposure 4 h, MB 2.5 μM) of the same compound?
Answer: The value was 0.29 E/ml.

Question: And the “Factor VIII” value (coagulation factor VIII; light exposure 4 h, MB 10 μM)?
Answer: Its value is 0.27 E/ml.

Question: And the “Factor V” value (coagulation factor V; Methylene Blue 1 μM)?
Answer: Its value is 0.76 E/ml.

Question: What about the “Factor V” value (coagulation factor V; Methylene Blue 2.5 μM) of the same compound?
Answer: Its value is 0.78 E/ml.

Question: And the “Factor V” value (coagulation factor V; Methylene Blue 5 μM)?
Answer: Its value is 0.74 E/ml.

Question: And the “Factor V” value (coagulation factor V; Methylene Blue 10 μM)?
Answer: Its value is 0.54 E/ml.

Question: What about the “Factor V” value (coagulation factor V; Methylene Blue 20 μM) of the same compound?
Answer: Its value is 0.44 E/ml.

Question: And the “MB concentration from which factor V activity is inhibited” value (coagulation factor V)?
Answer: Its value is “about 10 μM”.

Question: And the “reduction of infectious titer of VSV” value (VSV)?
Answer: Its value is “more than 5 log10-steps”.

Question: What about the “Inactivation Rate” value (Suid Herpes Type 1) of the same compound?
Answer: The value was 4.43 * log10 TCID50.
